Data from ChEMBL document CHEMBL1201862, “PubChem BioAssay data set” (2004).
The source made the active and inactive calls.

Assays:
[1] = target: Peroxisome proliferator-activated receptor gamma/Nuclear receptor coactivator 2 (Homo sapiens, UniProt P37231); type: functional;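 further: agonist potency for raising coactivator recruitment to the receptor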
[2] = target: Peroxisome proliferator-activated receptor gamma/Nuclear receptor coactivator 3 (Homo sapiens, UniProt P37231); type: functional;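 further: agonist potency for raising coactivator recruitment to the receptor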
Chain of Peroxisome proliferator-activated receptor gamma/Nuclear receptor coactivator 3 (P37231 whole entry): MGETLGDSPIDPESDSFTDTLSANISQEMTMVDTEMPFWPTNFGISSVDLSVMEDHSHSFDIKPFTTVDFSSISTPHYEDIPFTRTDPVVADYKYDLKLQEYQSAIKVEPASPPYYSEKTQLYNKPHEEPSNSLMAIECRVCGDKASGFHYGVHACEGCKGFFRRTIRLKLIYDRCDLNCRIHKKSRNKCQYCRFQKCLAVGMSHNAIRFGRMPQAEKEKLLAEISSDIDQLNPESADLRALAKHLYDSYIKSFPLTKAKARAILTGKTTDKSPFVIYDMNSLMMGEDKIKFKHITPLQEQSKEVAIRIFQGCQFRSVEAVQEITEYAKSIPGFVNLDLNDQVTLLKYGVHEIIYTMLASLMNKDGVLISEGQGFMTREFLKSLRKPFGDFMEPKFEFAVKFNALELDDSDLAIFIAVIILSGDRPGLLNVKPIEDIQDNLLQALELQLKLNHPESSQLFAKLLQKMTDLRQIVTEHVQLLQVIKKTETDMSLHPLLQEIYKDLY
Chain of Peroxisome proliferator-activated receptor gamma/Nuclear receptor coactivator 3 (Q9Y6Q9 whole entry, further chain): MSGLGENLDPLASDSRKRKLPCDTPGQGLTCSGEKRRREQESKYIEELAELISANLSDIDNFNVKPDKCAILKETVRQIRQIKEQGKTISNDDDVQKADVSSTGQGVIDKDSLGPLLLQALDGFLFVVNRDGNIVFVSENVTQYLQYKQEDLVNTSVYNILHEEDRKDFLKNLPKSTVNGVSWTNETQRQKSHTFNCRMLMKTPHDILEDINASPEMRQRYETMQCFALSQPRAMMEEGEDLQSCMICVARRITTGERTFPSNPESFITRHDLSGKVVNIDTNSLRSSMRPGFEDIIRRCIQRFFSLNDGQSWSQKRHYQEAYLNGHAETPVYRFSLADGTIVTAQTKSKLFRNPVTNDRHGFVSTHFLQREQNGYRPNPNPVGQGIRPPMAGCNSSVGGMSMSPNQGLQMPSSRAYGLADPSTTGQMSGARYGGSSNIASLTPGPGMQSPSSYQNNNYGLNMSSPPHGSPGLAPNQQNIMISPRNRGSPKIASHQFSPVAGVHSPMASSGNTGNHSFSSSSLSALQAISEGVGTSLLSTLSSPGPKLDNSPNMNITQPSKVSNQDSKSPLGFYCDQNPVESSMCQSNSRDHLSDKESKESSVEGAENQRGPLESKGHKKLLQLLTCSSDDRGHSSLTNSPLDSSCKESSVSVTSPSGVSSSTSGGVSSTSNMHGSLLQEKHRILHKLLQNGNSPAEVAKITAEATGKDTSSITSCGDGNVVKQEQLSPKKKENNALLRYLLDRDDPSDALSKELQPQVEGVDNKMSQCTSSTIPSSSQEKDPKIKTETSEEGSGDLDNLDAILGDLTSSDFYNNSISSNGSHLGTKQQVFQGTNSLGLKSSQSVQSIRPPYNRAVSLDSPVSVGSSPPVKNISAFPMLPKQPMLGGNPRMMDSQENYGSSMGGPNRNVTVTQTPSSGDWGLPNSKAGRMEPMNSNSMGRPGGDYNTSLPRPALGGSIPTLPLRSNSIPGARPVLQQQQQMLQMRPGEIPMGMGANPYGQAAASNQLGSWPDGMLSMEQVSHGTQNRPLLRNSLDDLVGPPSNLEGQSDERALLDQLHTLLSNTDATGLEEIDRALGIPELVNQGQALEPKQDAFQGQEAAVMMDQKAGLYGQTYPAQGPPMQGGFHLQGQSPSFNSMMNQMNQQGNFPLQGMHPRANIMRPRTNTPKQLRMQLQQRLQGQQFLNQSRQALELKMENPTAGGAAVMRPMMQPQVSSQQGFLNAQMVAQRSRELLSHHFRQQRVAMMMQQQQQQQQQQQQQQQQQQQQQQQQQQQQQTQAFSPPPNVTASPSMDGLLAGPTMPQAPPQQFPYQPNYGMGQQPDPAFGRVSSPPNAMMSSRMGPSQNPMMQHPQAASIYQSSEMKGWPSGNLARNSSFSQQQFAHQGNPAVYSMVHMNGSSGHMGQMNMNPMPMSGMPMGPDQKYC

[3] = target: Peroxisome proliferator-activated receptor gamma/Nuclear receptor coactivator 1 (Homo sapiens, UniProt P37231); type: functional;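 further: agonist potency as compounds enhance coactivator SRC-1 recruitment to PPARgamma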
[4] = target: T1, Short transient receptor potential channel 4 (Mus musculus, UniProt Q9QUQ5); assay: calcium entry via TRPC4 opening agents – cell-based, HEK293 TRPC4/mu-opioid, Fluo-4 calcium, dose response (AID 434937); type: functional
T1 sequence (Q9QUQ5 whole entry): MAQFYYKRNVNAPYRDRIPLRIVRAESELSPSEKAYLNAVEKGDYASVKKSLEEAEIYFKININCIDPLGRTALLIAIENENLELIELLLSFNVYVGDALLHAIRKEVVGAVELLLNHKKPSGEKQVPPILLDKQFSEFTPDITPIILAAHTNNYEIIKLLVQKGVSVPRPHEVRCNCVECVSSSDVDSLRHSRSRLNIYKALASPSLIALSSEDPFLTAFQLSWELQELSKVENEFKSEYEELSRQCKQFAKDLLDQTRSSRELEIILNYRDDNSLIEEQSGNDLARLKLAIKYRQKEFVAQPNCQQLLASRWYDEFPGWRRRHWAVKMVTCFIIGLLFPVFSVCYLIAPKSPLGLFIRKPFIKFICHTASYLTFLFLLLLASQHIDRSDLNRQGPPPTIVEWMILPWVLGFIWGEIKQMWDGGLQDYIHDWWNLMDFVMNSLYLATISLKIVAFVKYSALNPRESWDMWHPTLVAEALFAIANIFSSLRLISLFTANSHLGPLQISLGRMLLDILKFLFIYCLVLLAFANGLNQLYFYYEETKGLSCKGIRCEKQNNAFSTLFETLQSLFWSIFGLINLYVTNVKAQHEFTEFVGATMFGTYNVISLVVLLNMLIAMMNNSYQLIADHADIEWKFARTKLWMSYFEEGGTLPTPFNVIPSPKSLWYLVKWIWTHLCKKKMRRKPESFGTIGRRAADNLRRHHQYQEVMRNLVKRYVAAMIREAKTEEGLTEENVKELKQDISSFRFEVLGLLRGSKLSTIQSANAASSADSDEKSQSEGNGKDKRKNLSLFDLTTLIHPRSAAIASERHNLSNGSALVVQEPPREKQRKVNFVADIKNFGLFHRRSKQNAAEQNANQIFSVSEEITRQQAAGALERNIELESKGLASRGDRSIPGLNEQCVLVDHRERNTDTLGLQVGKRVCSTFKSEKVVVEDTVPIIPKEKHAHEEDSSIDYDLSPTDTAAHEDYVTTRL

SUMO-activating enzyme = SUMO-activating enzyme (Homo sapiens, UniProt Q9UBT2); assay: blockers of UBC9-mediated SUMO conjugation – biochemical, AlphaScreen, SUMOylation inhibitor project, confirmation (AID 2018); type: functional
[5] = target: DNA dC->dU-editing enzyme APOBEC-3A (Homo sapiens, UniProt P31941); assay: Dose Response confirmation of small molecule APOBEC3A DNA Deaminase Inhibitors via a fluorescence-based single-stranded DNA deaminase assay. [Related pubchem assays (depositor defined):AID493011, AID493024]; type: functional
Chain of DNA dC->dU-editing enzyme APOBEC-3A (P31941 whole entry): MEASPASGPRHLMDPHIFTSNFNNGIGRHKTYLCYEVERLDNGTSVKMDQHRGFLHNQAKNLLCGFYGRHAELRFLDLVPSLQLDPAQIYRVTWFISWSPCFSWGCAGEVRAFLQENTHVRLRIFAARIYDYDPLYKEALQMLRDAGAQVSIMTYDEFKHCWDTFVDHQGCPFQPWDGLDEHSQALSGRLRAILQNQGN

[6] = target: DNA dC->dU-editing enzyme APOBEC-3G (Homo sapiens, UniProt Q9HC16); type: functional;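 further: Dose-response counterscreen measuring inhibition of APOBEC3G DNA deaminase activity, run while confirming APOBEC3A inhibitors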
Chain of DNA dC->dU-editing enzyme APOBEC-3G (Q9HC16 whole entry): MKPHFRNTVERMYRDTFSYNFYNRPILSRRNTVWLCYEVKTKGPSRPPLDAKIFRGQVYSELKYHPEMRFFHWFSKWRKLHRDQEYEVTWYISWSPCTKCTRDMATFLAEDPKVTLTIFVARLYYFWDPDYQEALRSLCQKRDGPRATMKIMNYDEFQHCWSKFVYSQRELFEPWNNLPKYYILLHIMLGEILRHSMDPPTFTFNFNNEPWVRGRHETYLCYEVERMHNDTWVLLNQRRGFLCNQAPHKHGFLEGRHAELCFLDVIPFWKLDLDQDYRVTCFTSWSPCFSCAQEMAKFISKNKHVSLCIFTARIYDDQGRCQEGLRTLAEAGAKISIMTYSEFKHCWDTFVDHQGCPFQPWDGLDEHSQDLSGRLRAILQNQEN

HEK293 [7] = assay: inhibition of NOD1-driven NF-kB reporter – cell-based, luminescence, uHTS, primary screen (AID 1578); type: functional; settings: Homo sapiens
HEK293 [8] = assay: NOD2 signaling inhibitors in MDP-stimulated cells, cell-based, uHTS, luminescence (AID 2001); type: functional; settings: Homo sapiens
HEK293 [9] = assay: cells; type: functional, cell-based; settings: Homo sapiens
HEK293 [10] = assay: cells; type: functional, cell-based; settings: Homo sapiens; remark: listed apart in the source
HEK293 [11] = assay: cells; settings: Homo sapiens
[12] = target: T2, Nucleotide-binding oligomerization domain-containing protein 1 (Homo sapiens, UniProt Q9Y239); assay: blockers of NOD1 pathway activity – revised, SAR follow-up (AID 2333); type: functional
T2 sequence (Q9Y239 whole entry): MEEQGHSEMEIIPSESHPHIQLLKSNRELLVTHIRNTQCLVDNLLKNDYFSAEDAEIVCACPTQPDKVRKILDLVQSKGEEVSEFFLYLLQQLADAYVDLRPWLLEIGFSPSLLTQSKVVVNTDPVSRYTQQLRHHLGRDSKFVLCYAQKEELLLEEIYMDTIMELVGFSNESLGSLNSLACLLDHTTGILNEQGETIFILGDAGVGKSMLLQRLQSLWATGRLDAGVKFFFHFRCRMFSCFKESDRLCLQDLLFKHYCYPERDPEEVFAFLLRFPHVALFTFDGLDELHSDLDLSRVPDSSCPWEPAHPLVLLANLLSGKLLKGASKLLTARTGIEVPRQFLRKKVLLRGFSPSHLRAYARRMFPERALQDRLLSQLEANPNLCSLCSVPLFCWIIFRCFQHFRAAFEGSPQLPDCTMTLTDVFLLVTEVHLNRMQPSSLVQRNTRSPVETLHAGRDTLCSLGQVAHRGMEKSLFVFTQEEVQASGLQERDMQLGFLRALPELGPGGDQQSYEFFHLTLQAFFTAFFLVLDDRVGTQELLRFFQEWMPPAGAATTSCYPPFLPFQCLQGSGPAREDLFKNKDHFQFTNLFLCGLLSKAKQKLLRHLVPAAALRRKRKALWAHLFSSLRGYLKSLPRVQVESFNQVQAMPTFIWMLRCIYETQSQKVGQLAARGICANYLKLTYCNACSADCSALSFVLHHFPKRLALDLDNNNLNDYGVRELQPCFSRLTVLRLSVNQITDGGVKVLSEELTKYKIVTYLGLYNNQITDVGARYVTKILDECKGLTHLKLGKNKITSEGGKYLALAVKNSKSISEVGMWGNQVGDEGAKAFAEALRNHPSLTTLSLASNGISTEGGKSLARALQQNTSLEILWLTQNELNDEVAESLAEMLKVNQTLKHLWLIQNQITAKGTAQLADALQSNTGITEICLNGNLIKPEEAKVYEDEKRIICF

Tumor necrosis factor = Tumor necrosis factor (Homo sapiens, UniProt P01375); assay: analog potency on TNFa NF-kB signaling – cell-based, revised, SAR follow-up (AID 2337); type: functional
Chain of Tumor necrosis factor (P01375 whole entry): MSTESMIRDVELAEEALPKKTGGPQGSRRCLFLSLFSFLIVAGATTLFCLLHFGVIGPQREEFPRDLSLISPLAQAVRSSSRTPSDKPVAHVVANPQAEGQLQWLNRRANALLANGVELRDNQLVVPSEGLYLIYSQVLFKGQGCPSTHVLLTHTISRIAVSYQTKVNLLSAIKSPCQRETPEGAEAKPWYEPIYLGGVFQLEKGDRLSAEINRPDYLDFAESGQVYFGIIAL

Cytochrome P450 3A4 = Cytochrome P450 3A4 (Homo sapiens, UniProt P08684); settings: Potency;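 further: confirmatory qHTS run detecting inhibitors and substrates of CYP3A4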
Chain of Cytochrome P450 3A4 (P08684 whole entry): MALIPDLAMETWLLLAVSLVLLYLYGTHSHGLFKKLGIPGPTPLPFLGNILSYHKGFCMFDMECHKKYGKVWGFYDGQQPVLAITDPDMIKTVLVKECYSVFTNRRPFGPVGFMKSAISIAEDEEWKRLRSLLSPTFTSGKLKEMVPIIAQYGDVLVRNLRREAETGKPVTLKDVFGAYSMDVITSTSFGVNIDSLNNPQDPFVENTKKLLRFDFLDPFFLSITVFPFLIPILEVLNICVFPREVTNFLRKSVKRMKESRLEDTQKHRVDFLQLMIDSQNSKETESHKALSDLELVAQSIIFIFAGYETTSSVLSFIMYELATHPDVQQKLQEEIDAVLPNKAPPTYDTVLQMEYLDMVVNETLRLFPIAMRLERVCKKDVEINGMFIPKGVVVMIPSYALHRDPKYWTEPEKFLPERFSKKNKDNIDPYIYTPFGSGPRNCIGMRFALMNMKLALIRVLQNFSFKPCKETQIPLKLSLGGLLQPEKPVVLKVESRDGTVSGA

Ion channel NompC = Ion channel NompC (Danio rerio, UniProt Q7T1G6); assay: Fluorescence counterscreen assay for TRPML3 agonists: dose response cell-based high-throughput screening assay to identify agonists of the transient receptor potential channel N1 (TRPN1). [Related pubchem assays: 1526, 1424, 1448 ]; type: functional
Chain of Ion channel NompC (Q7T1G6 whole entry): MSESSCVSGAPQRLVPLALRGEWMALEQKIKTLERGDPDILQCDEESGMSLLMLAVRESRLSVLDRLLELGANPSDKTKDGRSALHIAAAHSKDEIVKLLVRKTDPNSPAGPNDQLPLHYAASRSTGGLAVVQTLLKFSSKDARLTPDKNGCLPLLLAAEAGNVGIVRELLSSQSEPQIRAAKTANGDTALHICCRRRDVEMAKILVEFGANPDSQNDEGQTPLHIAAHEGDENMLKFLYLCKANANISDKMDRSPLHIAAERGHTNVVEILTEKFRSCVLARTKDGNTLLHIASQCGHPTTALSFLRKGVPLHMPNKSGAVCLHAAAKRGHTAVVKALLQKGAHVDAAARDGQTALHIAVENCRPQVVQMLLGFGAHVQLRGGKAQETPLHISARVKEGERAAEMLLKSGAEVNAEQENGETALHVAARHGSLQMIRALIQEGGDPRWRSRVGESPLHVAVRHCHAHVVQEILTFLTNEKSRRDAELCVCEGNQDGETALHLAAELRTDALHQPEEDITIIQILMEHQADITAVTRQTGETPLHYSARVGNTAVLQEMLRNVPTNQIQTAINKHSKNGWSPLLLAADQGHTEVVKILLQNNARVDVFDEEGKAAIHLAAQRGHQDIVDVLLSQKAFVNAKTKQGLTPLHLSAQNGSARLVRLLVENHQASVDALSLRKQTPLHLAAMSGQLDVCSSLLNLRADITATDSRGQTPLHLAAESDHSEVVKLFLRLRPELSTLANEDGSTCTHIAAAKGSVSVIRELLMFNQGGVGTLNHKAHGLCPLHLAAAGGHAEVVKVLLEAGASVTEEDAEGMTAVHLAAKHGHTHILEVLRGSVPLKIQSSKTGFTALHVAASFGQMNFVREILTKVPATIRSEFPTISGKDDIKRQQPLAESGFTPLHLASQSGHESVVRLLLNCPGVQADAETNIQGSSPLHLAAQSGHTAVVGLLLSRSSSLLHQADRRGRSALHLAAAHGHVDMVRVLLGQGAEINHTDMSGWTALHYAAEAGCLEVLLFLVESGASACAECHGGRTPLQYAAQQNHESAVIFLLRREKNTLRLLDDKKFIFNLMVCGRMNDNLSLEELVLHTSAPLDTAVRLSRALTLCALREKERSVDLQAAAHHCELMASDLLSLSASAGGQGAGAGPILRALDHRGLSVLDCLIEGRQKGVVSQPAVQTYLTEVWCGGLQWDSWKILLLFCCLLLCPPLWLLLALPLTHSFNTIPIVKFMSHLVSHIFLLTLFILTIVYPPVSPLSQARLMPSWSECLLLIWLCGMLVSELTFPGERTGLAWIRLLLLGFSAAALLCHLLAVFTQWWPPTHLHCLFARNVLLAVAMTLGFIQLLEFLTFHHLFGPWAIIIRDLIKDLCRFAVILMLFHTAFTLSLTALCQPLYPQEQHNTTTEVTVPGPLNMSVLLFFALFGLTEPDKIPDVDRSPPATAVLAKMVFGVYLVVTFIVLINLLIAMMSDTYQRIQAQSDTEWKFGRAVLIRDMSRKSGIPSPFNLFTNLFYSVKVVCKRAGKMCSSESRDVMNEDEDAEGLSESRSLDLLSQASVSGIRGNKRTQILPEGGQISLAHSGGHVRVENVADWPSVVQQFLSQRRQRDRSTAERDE

Mucolipin-3 = target: T3, Mucolipin-3 (Homo sapiens, UniProt Q8TDD5); assay: Dose response cell-based high-throughput screening assay for agonists of the transient receptor potential channel ML3 (TRPML3). [Related pubchem assays: 1526, 1424, 1448 ]; type: functional
T3 sequence (Q8TDD5 whole entry): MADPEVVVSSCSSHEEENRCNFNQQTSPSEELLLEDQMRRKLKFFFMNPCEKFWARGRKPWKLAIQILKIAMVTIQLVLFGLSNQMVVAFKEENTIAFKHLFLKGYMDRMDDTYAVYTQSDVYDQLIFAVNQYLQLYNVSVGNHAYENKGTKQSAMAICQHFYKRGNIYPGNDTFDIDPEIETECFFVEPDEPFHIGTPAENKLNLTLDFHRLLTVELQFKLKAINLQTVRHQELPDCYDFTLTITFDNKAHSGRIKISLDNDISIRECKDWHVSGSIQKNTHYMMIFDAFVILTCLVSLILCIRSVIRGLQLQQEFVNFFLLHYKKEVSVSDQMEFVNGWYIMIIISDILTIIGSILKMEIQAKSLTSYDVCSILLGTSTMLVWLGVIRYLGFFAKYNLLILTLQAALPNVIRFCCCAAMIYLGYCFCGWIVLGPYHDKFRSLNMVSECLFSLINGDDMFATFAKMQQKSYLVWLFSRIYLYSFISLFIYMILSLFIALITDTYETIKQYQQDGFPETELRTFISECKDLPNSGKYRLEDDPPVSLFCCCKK

[13] = luciferase reporter signal suppression in cells – H4 neuroglioma cells, luminescence, dose response (AID 1990); type: functional, cell-based
[14] = Luminescence Cell-Based Dose Response HTS to Identify Inhibitors of 5'UTR Stem-Loop Driven Prion Protein mRNA Translation in H4 Neuroglioblastoma Cells. [Related pubchem assays: 1827 (Project Summary), 1813 (Primary HTS)]; type: functional
[15] = fluconazole-exposed Candida albicans growth modulators – fluorescence, retest, confirmation (AID 2467); type: functional, cell-based
[16] = NIH-3T3 fibroblast cytotoxicity, dose response, cytotoxicity control, cell-based, fluorescence, Alamar Blue, secondary assay (AID 2327); type: functional;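 further: NIH-3T3 mouse fibroblasts cultured with fluconazole at 8 µg/mL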
[17] = alpha-synuclein stem-loop luciferase translation blockers – H4 neuroglioma cells, luminescence, confirmation (AID 1988); type: functional, cell-based
[18] = reduction of Shn3 3'UTR-driven luciferase in osteoblasts – cell-based, Clone20 osteoblasts, firefly luciferase, cherry-picked, dose response (AID 624132); type: functional;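 further: firefly luciferase luminescence from reporter carrying the Shn3 3'UTR in osteoblasts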
[19] = non-specific 3'UTR reporter inhibition in Clone20-Shn3RL – cell-based, Renilla luciferase, cherry-picked, counter-screen for Shn3 inhibitor project, dose response (AID 624133); type: functional
[20] = loss of viability in HepG2 cells – cell-based, CellTiter-Glo, cherry-picked, cytotoxicity control for Shn3 inhibitor project, dose response (AID 624134); type: functional

CCCCC(CC)Cn1c2nc3ccccc3nc2c2c(=N)oc(C)nc21 (configuration not stated)
EC50 [1]: > 79.4 µM (not active)
EC50 [2]: 84.3 µM (not active)
EC50 [3]: > 79.4 µM (not active)

COc1ccc(C(CNCC(=O)Nc2ccccc2F)N(C)C)cc1 (configuration not stated)
EC50 [4]: 0.133 µM (active)

COc1ccccc1NC(=O)c1sc2ncn(CC(=O)Nc3ccccc3)c(=O)c2c1C
IC50 (SUMO-activating enzyme): 20.4 µM (active)

CSCCNC(C)=O
EC50 [1]: > 79.4 µM (not active)
EC50 [2]: > 79.4 µM (not active)
EC50 [3]: > 79.4 µM (not active)

CCN1C(N(C)CCc2cccs2)=N[C@@H](c2ccccc2)C(C(=O)OC)=C1C
IC50 [5]: 6.31 µM (active)
IC50 [6]: 8.2 µM (active)

CN(Cc1ccc(F)cc1)S(=O)(=O)c1nnc(NC(=O)c2ccccc2)s1
EC50 (HEK293 [7]): 3.08 µM (active)
IC50 (HEK293 [8]): 16.7 µM (inactive)
IC50 (HEK293 [9]): > 20 µM (inactive)
IC50 (HEK293 [10]): > 20 µM (inactive)
IC50 (HEK293 [11]): > 20 µM (inactive)
IC50 [12]: 11.1 µM (active)
IC50 (Tumor necrosis factor): 15.1 µM (active)

COC(C)C(O)(C(=O)OC1=CCN2CC[C@H](O)[C@H]12)C(C)C (some centres not stated)
AC50 (Cytochrome P450 3A4): 50.1 µM (inconclusive)

CCc1n(CC(O)COCC2CC=CCC2)c2ccccc2[n+]1C (configuration not stated)
IC50 [5]: 1.93 µM (active)
IC50 [6]: 3.7 µM (active)

Fc1ccc(-c2nnc(CN3CCN(c4ncc(C(F)(F)F)cc4Cl)CC3)o2)cc1
EC50 [4]: 5.31 µM (active)

Cc1c(NC(=O)c2nc[nH]n2)cccc1-c1nc2ccccc2s1
IC50 [5]: 1.58 µM (active)
IC50 [6]: 2.54 µM (active)

O=S(=O)(Cc1cc(Cl)nc(-c2ccccc2)n1)c1ccccc1
EC50 (Ion channel NompC): > 29.9 µM (not active)
EC50 (Mucolipin-3): 5.36 µM (active)

CN1CCN(CC(=O)Nc2sc3c(c2C(=O)Nc2ccccc2)CCCC3)CC1
IC50 [5]: 6.88 µM (active)
IC50 [6]: 5.56 µM (active)

CCN1C[C@@]2(C)CC[C@@H](OC)[C@@]34C2C(O)[C@@]2(OCO[C@]25CC(OC)C2C[C@@]3(O)C5C2O)C14 (some centres not stated)
AC50 (Cytochrome P450 3A4): 39.8 µM (inconclusive)

CCOc1ccc2c(c1)C(C)=CC(C)(C)N2S(=O)(=O)c1ccc(C)cc1
EC50 [13]: 1.36 µM (active)
EC50 [14]: 0.147 µM (active)
EC50 (Ion channel NompC): > 29.9 µM (not active)
EC50 [15]: > 38 µM (not active)
EC50 (Mucolipin-3): > 29.9 µM (not active)
EC50 [16]: > 160 µM (inactive)
EC50 [17]: 0.497 µM (active)

Cc1nc(CN(C)C(=O)c2cc(COc3ccc4ncccc4c3)on2)cs1
EC50 (HEK293 [7]): 2.75 µM (active)
IC50 (HEK293 [8]): 14.3 µM (inactive)
IC50 (HEK293 [9]): > 20 µM (inactive)
IC50 (HEK293 [10]): 7.67 µM (active)
IC50 (HEK293 [11]): > 20 µM (inactive)
IC50 [12]: > 20 µM (inactive)
IC50 (Tumor necrosis factor): > 20 µM (inactive)

Fc1ccc(C2CCNCC2COc2ccc3c(c2)OCO3)cc1 (configuration not stated)
EC50 [4]: 10.6 µM (active)

COc1ccc(CNc2ncnc3sccc23)cc1OC
AC50 [18]: 2.34 µM (active)
EC50 (HEK293 [7]): 5.37 µM (active)
AC50 [19]: 5.11 µM (active)
AC50 [20]: 68.3 µM (active)
IC50 (HEK293 [8]): > 20 µM (inactive)
IC50 (HEK293 [9]): > 20 µM (inactive)
IC50 (HEK293 [10]): 17.4 µM (active)
IC50 (HEK293 [11]): > 20 µM (inactive)
IC50 [12]: 9.64 µM (active)
IC50 (Tumor necrosis factor): 13 µM (active)

O=c1[nH]n(-c2ccccc2)c(=O)c2ccccc12
EC50 [1]: > 79.4 µM (not active)
EC50 [2]: > 79.4 µM (not active)
EC50 [3]: > 79.4 µM (not active)

Cc1ccc(S(=O)(=O)N2CCN(C)CC2)c(C)c1N(C)S(=O)(=O)c1ccc(Cl)cc1
EC50 (Ion channel NompC): > 29.9 µM (not active)
EC50 (Mucolipin-3): 3.34 µM (active)

CCOC(=O)C1=C(NC(=S)NC(=O)c2ccccc2)c2ccccc2CC1(C)C
EC50 (Ion channel NompC): > 29.9 µM (not active)
EC50 (Mucolipin-3): 5.5 µM (active)

CCC(=O)[C@]12O[C@@]3(C4C(=O)OCCC41)N(CC)C(C)=C(C(=O)OC)C(c1ccccc1)N3C2=O (some centres not stated)
AC50 (Cytochrome P450 3A4): 5.01 µM (inconclusive)

CN1CCN(c2ccc(C(F)(F)F)cc2NC(=O)Nc2ccccc2)CC1
EC50 [4]: 4.73 µM (active)
